The values below come from patent publication US8710233B2 (Gruenenthal GmbH, priority 2005, dated 2014).

By Ki is commonly meant a dissociation constant, usually derived from enzyme kinetics or from competition with a known ligand.

Assay [1] deals with T1, vanilloid receptor 1 (VR1/TRPV1) of the rat species (Rattus norvegicus, UniProt O35433).
T1 construct: The spinal column is removed from decapitated rats; from tissue; host or cells: primary cells dissociated from rat dorsal root ganglia
The experiment in a line: FLIPR Ca2+ influx assay on rat dorsal root ganglia cells (pharmacological method I). The assay is classed as cell-based. Particulars: table 4, capsaicin. The essentials: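 Primary rat dorsal root ganglion cells loaded with 2 μM Fluo-4, Ca2+ influx read on FLIPR as peak fluorescence. Triplicates, at least 3 independent experiments.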

Assay [2] deals with formaldehyde induced nociceptive behaviour. Put plainly: Formaldehyde test in mice, second (late) phase. The assay is classed as in vivo, mouse. The following applies: mouse, read-out: inhibition formaldehyde test (n = 10).

Where two headings read alike, the source gives them in different places.

T1 sequence (O35433 whole entry): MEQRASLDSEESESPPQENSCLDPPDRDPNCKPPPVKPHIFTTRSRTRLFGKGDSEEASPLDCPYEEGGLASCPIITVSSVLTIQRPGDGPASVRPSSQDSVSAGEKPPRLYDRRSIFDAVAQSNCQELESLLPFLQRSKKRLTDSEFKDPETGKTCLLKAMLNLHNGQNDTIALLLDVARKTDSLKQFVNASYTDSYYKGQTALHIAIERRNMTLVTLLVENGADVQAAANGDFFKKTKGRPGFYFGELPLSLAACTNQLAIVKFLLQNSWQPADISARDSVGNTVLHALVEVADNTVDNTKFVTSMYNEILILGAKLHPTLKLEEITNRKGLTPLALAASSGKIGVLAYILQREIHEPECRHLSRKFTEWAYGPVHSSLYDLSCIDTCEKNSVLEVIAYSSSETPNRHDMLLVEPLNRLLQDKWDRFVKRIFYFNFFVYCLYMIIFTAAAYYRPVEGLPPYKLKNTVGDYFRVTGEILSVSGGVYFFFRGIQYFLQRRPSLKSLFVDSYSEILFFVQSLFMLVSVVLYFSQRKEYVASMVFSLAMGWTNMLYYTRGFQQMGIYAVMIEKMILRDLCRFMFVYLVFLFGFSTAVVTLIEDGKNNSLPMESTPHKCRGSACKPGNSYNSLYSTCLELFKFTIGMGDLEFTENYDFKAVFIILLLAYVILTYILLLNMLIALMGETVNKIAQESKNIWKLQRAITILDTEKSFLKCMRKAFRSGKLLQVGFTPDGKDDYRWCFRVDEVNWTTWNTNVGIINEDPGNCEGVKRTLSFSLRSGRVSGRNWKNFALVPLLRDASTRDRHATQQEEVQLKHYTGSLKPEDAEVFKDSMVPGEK

Regarding `CC(C(=O)NCc1ccc(C(F)(F)F)nc1OCCC(C)(C)C)c1ccc(NS(C)(=O)=O)c(F)c1` (centres unmarked) [Example 125], the Ki in assay [1] (Ki (rat) Cap.) turned out to be 1 nM. Moreover, the inhibition in vivo at 0.3 mg/kg in assay [2] (0.3 mg/kg body weight po) was 24%.

As to `Cc1ccc(Cl)cc1Nc1nc(C(F)(F)F)ccc1CNC(=O)C(C)c1ccc(NS(C)(=O)=O)c(F)c1` (centres unmarked) [Example 136, N-[2-(5-chloro-2-methyl-phenylamino)-6-trifluoromethyl-pyridin-3-ylmethyl]-2-(3-fluoro-4-methylsulfonamido-phenyl)-propionamide], the Ki in assay [1] (read-out: Ki (rat) Cap.) was 8.3 nM. On to `CC(C(=O)NCc1ccc(C(C)(C)C)nc1OC1CCCC1)c1ccc(NS(C)(=O)=O)c(F)c1` (centres unmarked) [Example 234, N-(6-tert-butyl-2-cyclopentyloxy-pyridin-3-ylmethyl)-2-(3-fluoro-4-methylsulfonamido-phenyl)-propionamide], for which the inhibitory constant (Ki) in assay [1] (read-out: Ki (rat) Cap.) is 1 nM. For the same compound, the inhibition in vivo at 0.03 mg/kg in assay [2] (0.03 mg/kg body weight po) was 5%.
